Some test systems named below: SNB-19 CNS; MOLT-4 leukemia; SN12C renal; UACC-257 melanoma; COLO 205 colon; IGROV1 ovarian; MDA-MB-231 breast; OVCAR-5 ovarian; A549 NSCLC; MALME-3M melanoma.
Experiment in all cases: DTP human tumour cell line panel, 48 h

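48-hour exposure; five concentrations; linearly interpolated endpoints. TGI: concentration producing complete growth inhibition.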

In the case of `CCOC(=O)c1c(N2CCN(C)CC2)[nH]c(=O)c(C(c2c(Cl)cccc2Cl)c2c(O)c(C(=O)OCC)c(N3CCN(C)CC3)[nH]c2=O)c1O`, the concentration for total growth inhibition (TGI) (commonly the concentration giving total growth inhibition) in the test on SNB-19 CNS was 37.2 µM; in the test on MOLT-4 leukemia, 62.2 µM; with SN12C renal, 48 µM; with UACC-257 melanoma it was 38.9 µM; with COLO 205 colon, over 100 µM; with IGROV1 ovarian it was 39.2 µM. Besides, the TGI in the test on MDA-MB-231 breast was 55.1 µM; with OVCAR-5 ovarian, over 100 µM; in the test with A549 NSCLC it was 71.4 µM; with MALME-3M melanoma, 41.5 µM.
For the compound `CCCCCCCC(=O)NC(C)(C)C(=O)NCC(=O)NC(CC(C)C)C(=O)NC(C)(C)C(=O)NCC(=O)NCC(=O)NC(CC(C)C)C(=O)NC(C)(C)C(=O)NCC(=O)NC(C(=O)NC(CO)CC(C)C)C(C)CC` (stereo not given), the TGI in the test on SNB-19 CNS was 6.83 µM; with MOLT-4 leukemia it was 9.43 µM; in the test on SN12C renal, 7.7 µM; in the test on UACC-257 melanoma, 7.96 µM; in the test with COLO 205 colon, 7.18 µM; with IGROV1 ovarian it was 7.17 µM. Further, the TGI in the test on MDA-MB-231 breast is 7.38 µM; with OVCAR-5 ovarian, 6.94 µM; with A549 NSCLC, 8.01 µM; with MALME-3M melanoma, 8.93 µM.
As for `C=CCCCCCCCCCOC1C=CC(O)C(CO)O1` (stereo not given), the TGI was over 100 µM in the test with SNB-19 CNS; 86.7 µM in the test with MOLT-4 leukemia; over 100 µM in the test with SN12C renal; 61.4 µM in the test on UACC-257 melanoma; over 100 µM in the test with COLO 205 colon; 59.1 µM with IGROV1 ovarian. The TGI in the test on MDA-MB-231 breast was over 100 µM; in the test with OVCAR-5 ovarian, over 100 µM; in the test on A549 NSCLC, over 100 µM; in the test with MALME-3M melanoma it was 73.3 µM.
In the case of `C[N+]1(CC[N+]2(C)CCCC2c2cccnc2)CCCC1c1cccnc1` (stereo not given), the TGI with SNB-19 CNS, with MOLT-4 leukemia, in the test with SN12C renal, with UACC-257 melanoma, in the test with COLO 205 colon and in the test on IGROV1 ovarian was over 100 µM throughout. Besides, the TGI in the test on MDA-MB-231 breast, in the test on OVCAR-5 ovarian, with A549 NSCLC and with MALME-3M melanoma was over 100 µM in each case.
As to `COc1ccc(/C=N/n2c(-c3ccccc3)n[nH]c2=O)c(OC)c1`, the TGI with SNB-19 CNS is 50.1 µM; in the test on MOLT-4 leukemia, over 100 µM; in the test on SN12C renal it was over 100 µM; with UACC-257 melanoma it was over 100 µM; in the test with COLO 205 colon it was over 100 µM; in the test on IGROV1 ovarian it was over 100 µM. The TGI with MDA-MB-231 breast, in the test on OVCAR-5 ovarian, with A549 NSCLC and in the test with MALME-3M melanoma was over 100 µM throughout.

The values are drawn from PubChem BioAssay (NCI).
